Measurements published in PMC12675575, “A BRET biosensor for measuring uncompetitive engagement of PRMT5 complexes in cells” (Nature Communications, 2025).
“And” between values parts separate entries of the source, which are not always exact repeats. Equal entries are not always repeated.

What was measured:
NLuc-PRMT5 = NLuc-PRMT5 (Homo sapiens, UniProt O14744); experiment: BRET probe CBH-002 binding kinetics (association, dissociation by GSK3326595) in live HEK293 cells; assay type: cell-based; set-up: host or cells: HEK293 (live cells; digitonin lysate for the SAM titration); Tracer association (Figure S3C): unit not given here
Sequence of NLuc-PRMT5 (O14744 whole entry): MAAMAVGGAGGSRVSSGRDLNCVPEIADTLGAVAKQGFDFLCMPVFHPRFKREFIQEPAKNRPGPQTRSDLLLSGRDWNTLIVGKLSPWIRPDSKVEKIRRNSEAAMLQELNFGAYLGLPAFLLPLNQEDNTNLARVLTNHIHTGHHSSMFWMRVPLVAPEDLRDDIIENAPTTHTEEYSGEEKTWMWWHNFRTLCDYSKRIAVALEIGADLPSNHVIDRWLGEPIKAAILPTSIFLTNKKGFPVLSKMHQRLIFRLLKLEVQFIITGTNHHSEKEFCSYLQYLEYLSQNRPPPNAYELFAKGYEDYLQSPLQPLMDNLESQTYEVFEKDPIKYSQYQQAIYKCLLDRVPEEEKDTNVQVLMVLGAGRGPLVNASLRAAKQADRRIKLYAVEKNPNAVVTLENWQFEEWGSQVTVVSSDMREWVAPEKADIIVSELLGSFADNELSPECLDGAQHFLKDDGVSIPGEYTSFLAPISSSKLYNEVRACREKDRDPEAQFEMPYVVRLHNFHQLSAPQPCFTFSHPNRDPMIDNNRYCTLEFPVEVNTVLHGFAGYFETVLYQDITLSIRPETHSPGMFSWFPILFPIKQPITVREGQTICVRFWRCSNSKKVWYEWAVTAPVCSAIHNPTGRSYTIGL
Sequence of NLuc-PRMT5 (Q9BQA1 whole entry partner): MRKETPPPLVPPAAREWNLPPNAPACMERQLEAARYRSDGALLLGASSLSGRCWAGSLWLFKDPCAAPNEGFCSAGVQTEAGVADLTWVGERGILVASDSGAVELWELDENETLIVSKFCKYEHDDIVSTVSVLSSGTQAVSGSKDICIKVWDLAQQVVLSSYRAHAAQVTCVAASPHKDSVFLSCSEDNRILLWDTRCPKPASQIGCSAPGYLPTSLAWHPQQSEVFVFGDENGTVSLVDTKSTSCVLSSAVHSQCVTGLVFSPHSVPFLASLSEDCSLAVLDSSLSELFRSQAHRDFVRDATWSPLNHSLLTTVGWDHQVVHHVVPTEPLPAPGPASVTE
Experimental: To determine BRET probe binding kinetics, live HEK293 cells were treated with 30 nM CBH-002 and BRET measurements were read in 3 min intervals for 2 h at room temperature.

[1] = biological target: T1, NLuc-PRMT5 co-expressed with WDR77 in HCT116 MTAP wild-type cells (Homo sapiens, UniProt O14744); experiment: Live-cell NanoBRET target engagement in HCT116 MTAP wild-type cells (NLuc-PRMT5 + WDR77); assay type: cell-based; settings: for BRET, CBH-002 + DMSO: Fig 5A, Log([CBH-002]); for normalized BRET, CBH-002 + DMSO (Figure S6C) / normalized BRET, CBH-002 + GSK3326595 (Figure S6C): log([CBH-002])
T1 construct: Horizon Discovery (cells) #PAR-034 and #R02-033 (cells); host or cells: HCT116 MTAP wild-type / MTAP-/-
T1 sequence (O14744 whole entry): as the sequence (O14744 whole entry) above
T1 sequence (Q9BQA1 whole entry partner): as the sequence (Q9BQA1 whole entry partner) above
Experimental: HEK293 cells (ATCC) were cultured in DMEM (Thermo Fisher) + 10% (v/v) FBS (Seredigm), and HCT116 cells (Horizon Discovery, #PAR-034 and #R02-033) were cultured in McCoy’s 5A (Thermo Fisher) + 10% FBS, with incubation in a humidified, 37 °C/5% CO2 incubator. Cells were split 1–3 days prior to performing experiments and used at roughly 80% confluency. […] Cells were transfected according to the manufacturer’s protocol using FuGENE HD (Promega). NanoLuc fusion DNA was diluted into Transfection Carrier DNA (Promega) in Opti-MEM at a ratio of 1:9 (mass/mass), and FuGENE HD was added at a ratio of 1:3 (μg DNA:μL lipid). […] Formed complexes were combined with cells resuspended to a density of 2 × 10^5 cells/mL in Opti-MEM + 1% FBS at a ratio of 1:20 (vol:vol). […] Cells were seeded at a density of 2 × 10^5 cells/mL in Opti-MEM + 1% FBS in 100 μL (96-well). The BRET probe CBH-002 was prepared first as a 100× stock in 100% DMSO (Sigma) and then diluted to a 20× stock in NanoBRET Tracer Dilution buffer (Promega). Test compounds were prepared as 1000× stocks in 100% DMSO and diluted to 10× stocks in Opti-MEM to prepare working stocks. […] NanoBRET Complete 3x Substrate was prepared by combining Nano-Glo Substrate and Extracellular NanoLuc Inhibitor in Opti-MEM, according to the manufacturer’s protocol (Promega).
EC50 values were obtained by fitting the BRET probe and compound affinity curves to a sigmoidal four-parameter fit model in Graphpad Prism:1 Y=Ymin+Ymax−Ymin/1+10^LogEC50−Xh where h is the Hill Slope.
When normalized BRET was used, mBRET values were normalized using2 NormalizedBRET%=(Y−BRETmin)/BRETmax−BRETmin where y = mBRET in the presence of test compound and BRET probe, BRETmin = mBRET at the highest concentration (saturating) of test compound and BRET probe, and BRETmax = mBRET in the presence of vehicle (DMSO) and BRET probe.
Normalized concentration-response curves showing full competition were fit using a 2-parameter model:3 Y=100/1+10^LogEC50−Xh
In situations where only partial competition was observed, the normalized concentration-response curves were fit using Eq. 1 and where Ymin was constrained to >0.

O=C(CCc1ccc2n1[B-](F)(F)[N+]1=C(c3ccc[nH]3)C=CC1=C2)NCCCCC(=O)N1CCC(Nc2cc(C(=O)NC[C@H](O)CN3CCc4ccccc4C3)ncn2)CC1 [CBH-002]
Tracer association (Figure S3C) (NLuc-PRMT5; Time (min) -27): 84.20 and 89.90 and 88.10 and 83.20
Tracer association (Figure S3C) (NLuc-PRMT5; Time (min) -30): 82.70 and 89.80 and 85.50 and 82.10
Tracer association (Figure S3C) (NLuc-PRMT5; Time (min) -33): 82.30 and 86.20 and 84.70 and 81.40
Tracer association (Figure S3C) (NLuc-PRMT5; Time (min) -36): 79.10 and 84.40 and 82.30 and 79.90
Tracer association (Figure S3C) (NLuc-PRMT5; Time (min) -39): 78.00 and 83.20 and 80.40 and 77.80
Tracer association (Figure S3C) (NLuc-PRMT5; Time (min) -42): 74.70 and 81.80 and 78.20 and 76.90
Tracer association (Figure S3C) (NLuc-PRMT5; Time (min) -45): 72.40 and 79.70 and 77.50 and 73.60
Tracer association (Figure S3C) (NLuc-PRMT5; Time (min) -48): 71.50 and 77.50 and 73.90 and 72.30
Tracer association (Figure S3C) (NLuc-PRMT5; Time (min) -51): 70.80 and 74.30 and 71.70 and 69.80
Tracer association (Figure S3C) (NLuc-PRMT5; Time (min) -54): 67.60 and 72.60 and 69.10 and 66.30
Tracer association (Figure S3C) (NLuc-PRMT5; Time (min) -57): 64.20 and 69.60 and 66.90 and 64.40
Tracer association (Figure S3C) (NLuc-PRMT5; Time (min) -60): 62.40 and 67.20 and 64.20 and 62.00
Tracer association (Figure S3C) (NLuc-PRMT5; Time (min) -63): 58.70 and 64.40 and 60.70 and 59.40
Tracer association (Figure S3C) (NLuc-PRMT5; Time (min) -66): 56.10 and 60.10 and 57.50
Tracer association (Figure S3C) (NLuc-PRMT5; Time (min) -69): 53.40 and 56.10 and 54.60 and 53.80
Tracer association (Figure S3C) (NLuc-PRMT5; Time (min) -72): 50.10 and 53.80 and 51.80
Tracer association (Figure S3C) (NLuc-PRMT5; Time (min) -75): 46.70 and 49.90 and 47.90 and 46.40
Tracer association (Figure S3C) (NLuc-PRMT5; Time (min) -78): 43.20 and 46.00 and 44.30 and 42.50
Tracer association (Figure S3C) (NLuc-PRMT5; Time (min) -81): 39.30 and 42.30 and 40.80 and 39.10
Tracer association (Figure S3C) (NLuc-PRMT5; Time (min) -84): 36.10 and 38.40 and 35.80
Tracer association (Figure S3C) (NLuc-PRMT5; Time (min) -87): 31.70 and 33.50 and 32.20 and 31.50
Tracer association (Figure S3C) (NLuc-PRMT5; Time (min) -90): 27.90 and 29.40 and 28.10 and 27.70
Tracer association (Figure S3C) (NLuc-PRMT5; Time (min) -93): 22.90 and 24.80 and 24.00 and 23.50
Tracer association (Figure S3C) (NLuc-PRMT5; Time (min) -96): 18.60 and 20.70 and 19.20
Tracer association (Figure S3C) (NLuc-PRMT5; Time (min) -99): 13.20 and 15.60 and 14.50
Tracer association (Figure S3C) (NLuc-PRMT5; Time (min) -102): 7.40 and 9.50 and 8.80 and 9.10
Time for BRET biosensor to reach equilibrium (NLuc-PRMT5; live cells, room temperature, 30 nM CBH-002): ~ 2 h
BRET, CBH-002 + DMSO ([1]; uM -0.60): 403 and 799.01 and 758.47
BRET, CBH-002 + DMSO ([1]; uM -0.90): 393 and 766.11 and 738.99
BRET, CBH-002 + DMSO ([1]; uM -1.20): 378 and 710.21 and 697.93
BRET, CBH-002 + DMSO ([1]; uM -1.51): 362 and 618.54 and 616.68
BRET, CBH-002 + DMSO ([1]; uM -1.81): 323
BRET, CBH-002 + DMSO ([1]; uM -2.71): 68.8 and 69.23 and 65.71
EC50 ([1]; HCT116 wild-type cells, WDR77 co-expression, read-out: CBH-002 apparent affinity (EC50)): 12 nM
normalized BRET, CBH-002 + DMSO (Figure S6C) ([1]; uM = -0.60): 100
normalized BRET, CBH-002 + GSK3326595 (Figure S6C) ([1]; uM = -0.60): 12.6717 and 16.8431 and 16.7636
normalized BRET, CBH-002 + DMSO (Figure S6C) ([1]; uM = -0.90): 97.4927 and 95.8339 and 97.4011
normalized BRET, CBH-002 + GSK3326595 (Figure S6C) ([1]; uM = -0.90): 9.237 and 13.3988 and 13.2855
normalized BRET, CBH-002 + DMSO (Figure S6C) ([1]; uM = -1.20): 93.7318 and 88.7552 and 91.9231
normalized BRET, CBH-002 + GSK3326595 (Figure S6C) ([1]; uM = -1.20): 5.8269 and 8.083 and 8.045
normalized BRET, CBH-002 + DMSO (Figure S6C) ([1]; uM = -1.51): 89.7202 and 77.147 and 81.0831
normalized BRET, CBH-002 + GSK3326595 (Figure S6C) ([1]; uM = -1.51): 3.295 and 4.174 and 4.336
normalized BRET, CBH-002 + DMSO (Figure S6C) ([1]; uM = -1.81): 79.9418 and 55.2096 and 56.8522
normalized BRET, CBH-002 + GSK3326595 (Figure S6C) ([1]; uM = -1.81): 1.59 and 1.874 and 2.064
normalized BRET, CBH-002 + DMSO (Figure S6C) ([1]; uM = -2.11): 57.6271 and 32.8998 and 32.0743
normalized BRET, CBH-002 + GSK3326595 (Figure S6C) ([1]; uM = -2.11): 0.7121 and 0.8016 and 0.8965
normalized BRET, CBH-002 + DMSO (Figure S6C) ([1]; uM = -2.41): 31.5515 and 15.8288 and 15.9084
normalized BRET, CBH-002 + GSK3326595 (Figure S6C) ([1]; uM = -2.41): 0.2206 and 0.2381 and 0.3149
normalized BRET, CBH-002 + GSK3326595 (Figure S6C) ([1]; uM = -2.71): 0
